Data: BindingDB's records for doi:10.7270/Q2CV4GM1 (D3R/Abbott, 2015)
Where “and” joins values, the source holds several entries; their conditions need not be identical. Equal entries are not always repeated.

Biological target: T1, Tyrosine-protein kinase SYK [355-635] (Homo sapiens, UniProt P43405)
T1 construct: 355-635
Test: SYK assay_HTRF

Structure (SMILES): O=S1(=O)NCc2ccc(Nc3ncc(F)c(N(CCCO)c4cccc5[nH]ncc45)n3)cc21 [GTC000230A]
- IC50: 1.46 nM

Structure (SMILES): CS(=O)(=O)c1cccc(Nc2ncc(F)c(N(CCCO)c3cccc4[nH]ncc34)n2)c1 [GTC000360A]
- IC50: 79.4 nM

Structure (SMILES): COCCCN(c1ccnc(Nc2cccc(C(N)=O)c2)n1)c1cccc2[nH]ncc12 [GTC000324A]
- IC50: 12.8 nM and 61.9 nM

Structure (SMILES): Cc1cc(NC(=O)Cc2ccc(Nc3nccc(Nc4cccc5[nH]ncc45)n3)cc2)no1 [GTC000206A]
- IC50: 640 nM

Structure (SMILES): Cc1cc(=O)[nH]c2ccc(Nc3nccc(Nc4cccc5[nH]ncc45)n3)cc12 [GTC000159A]
- IC50: 28.1 nM

Structure (SMILES): CN1CCN(C(=O)c2ccc(Nc3nccc(Nc4cccc5[nH]ncc45)n3)cc2)CC1 [GTC000185A]
- IC50: 4190 nM

Structure (SMILES): CC(C)c1ccc(Nc2nccc(Nc3cccc4[nH]ncc34)n2)cc1 [GTC000128A]
- IC50: 219 nM

Structure (SMILES): O=S1(=O)NCc2ccc(Nc3nccc(N(CC(F)(F)F)c4cccc5[nH]ncc45)n3)cc21 [GTC000314A]
- IC50: 15.7 nM

Structure (SMILES): CN1C(=O)c2ccc(Nc3nccc(Nc4cccc5[nH]ncc45)n3)cc2C1=O [GTC000170A]
- IC50: 573 nM

Structure (SMILES): O=S1(=O)NCc2ccc(Nc3nccc(N(C[C@@H](O)CO)c4cccc5[nH]ncc45)n3)cc21 [GTC000304A]
- IC50: 13.6 nM

Structure (SMILES): Cn1ncc2cc(Nc3nccc(N(CCCO)c4cccc5[nH]ncc45)n3)ccc21 [GTC000225A]
- IC50: 20.6 nM and 18.5 nM

Structure (SMILES): CCN(c1nc(Nc2ccc3c(c2)S(=O)(=O)NC3)ncc1Br)c1cccc2[nH]ncc12 [GTC000327A]
- IC50: 12.1 nM and 21.5 nM and 43.8 nM

Structure (SMILES): N#Cc1ccc(Nc2nccc(Nc3cccc4[nH]ncc34)n2)cc1 [GTC000139A]
- IC50: 211 nM

Structure (SMILES): COCCCN(c1nc(Nc2cccc(C(N)=O)c2)ncc1F)c1cccc2[nH]ncc12 [GTC000346A]
- IC50: 30.3 nM

Structure (SMILES): CCN(c1nc(Nc2ccc3c(C)n(CCCO)nc3c2)ncc1F)c1cccc2[nH]ncc12 [GTC000370A]
- IC50: 188 nM

Structure (SMILES): COc1ccc(Nc2nccc(Nc3cccc4[nH]ncc34)n2)cc1 [GTC000135A]
- IC50: 179 nM and 225 nM and 243 nM and 923 nM

Structure (SMILES): Cn1c(=O)n(C)c2cc(Nc3nccc(Nc4cccc5[nH]ncc45)n3)ccc21 [GTC000158A]
- IC50: 98.6 nM and 89.1 nM and 244 nM

Structure (SMILES): Cc1noc(NC(=O)Cc2ccc(Nc3nccc(Nc4cccc5[nH]ncc45)n3)cc2)c1C [GTC000205A]
- IC50: 925 nM

Structure (SMILES): O=S(=O)(O)c1cccc(Nc2nccc(Nc3cccc4[nH]ncc34)n2)c1 [GTC000190A]
- IC50: 1100 nM

Structure (SMILES): COCCCN(c1nc(Nc2ccc3c(c2)S(=O)(=O)NC3)ncc1F)c1cccc2[nH]ncc12 [GTC000228C]
- IC50: 2.45 nM and 1.1 nM and 2.07 nM and 1.38 nM and 3.35 nM and 1.47 nM and 2.08 nM and 7 nM and 4.35 nM and 2.02 nM and 5.36 nM and 2 nM and 3.66 nM and 2.13 nM and 2.86 nM

Structure (SMILES): O=C(Cc1ccc(Nc2nccc(Nc3cccc4[nH]ncc34)n2)cc1)Nc1ccncc1 [GTC000216A]
- IC50: 828 nM

Structure (SMILES): O=C1CNC(=O)N1c1cccc(Nc2nccc(Nc3cccc4[nH]ncc34)n2)c1 [GTC000167A]
- IC50: 233 nM

Structure (SMILES): COCCCN(c1ccnc(Nc2ccc3c(c2)S(=O)(=O)NC3)n1)c1cccc2[nH]ncc12 [GTC000236A]
- IC50: 2.69 nM and 1.48 nM and 4.88 nM and 4.34 nM

Structure (SMILES): Cc1ccc(S(=O)(=O)Nc2ccc(Nc3nccc(Nc4cccc5[nH]ncc45)n3)cc2)cc1 [GTC000220A]
- IC50: 916 nM

Structure (SMILES): NC(=O)CN(c1nc(Nc2ccc3c(c2)S(=O)(=O)CC3)ncc1F)c1cccc2[nH]ncc12 [GTC000369A]
- IC50: 198 nM

Structure (SMILES): CNC(=O)CN(c1nc(Nc2ccc3c(c2)S(=O)(=O)NC3)ncc1F)c1cccc2[nH]ncc12 [GTC000358A]
- IC50: 81.8 nM

Structure (SMILES): CCN(CC)CCCN(c1ccnc(Nc2ccc3c(c2)S(=O)(=O)NC3)n1)c1cccc2[nH]ncc12 [GTC000291A]
- IC50: 11.5 nM and 7.21 nM

Structure (SMILES): COC(=O)CCCCN(c1ccnc(Nc2ccc3c(c2)S(=O)(=O)NC3)n1)c1cccc2[nH]ncc12 [GTC000296A]
- IC50: 5.04 nM and 25.1 nM and 21.6 nM

Structure (SMILES): c1cc(Nc2ccnc(Nc3ccc(N4CCOCC4)cc3)n2)c2cn[nH]c2c1 [GTC000129A]
- IC50: 220 nM

Structure (SMILES): COCCCN(c1ccnc(Nc2cccc(S(C)(=O)=O)c2)n1)c1cccc2[nH]ncc12 [GTC000352A]
- IC50: 23.1 nM and 99.3 nM

Structure (SMILES): CCN(c1nc(Nc2ccc3cnn(C)c3c2)ncc1F)c1cccc2[nH]ncc12 [GTC000255A]
- IC50: 4.63 nM

Structure (SMILES): O=c1ccc2cc(Nc3nccc(Nc4cccc5[nH]ncc45)n3)ccc2o1 [GTC000169A]
- IC50: 421 nM and 242 nM

Structure (SMILES): FC(F)(F)c1cccc(Nc2nccc(Nc3cccc4[nH]ncc34)n2)c1 [GTC000132A]
- IC50: 154 nM and 127 nM and 151 nM and 440 nM

Structure (SMILES): COCCN(c1ccnc(Nc2cccc(-c3ocnc3C)c2)n1)c1cccc2[nH]ncc12 [GTC000323A]
- IC50: 21.5 nM

Structure (SMILES): NCCN(c1nc(Nc2ccc3c(c2)S(=O)(=O)CC3)ncc1F)c1cccc2[nH]ncc12 [GTC000371A]
- IC50: 225 nM

Structure (SMILES): CCN(c1nc(Nc2ccc3[nH]c(=O)oc3c2)ncc1F)c1cccc2[nH]ncc12 [GTC000361A]
- IC50: 72.3 nM

Structure (SMILES): CN(c1nc(Nc2ccc(C(N)=O)cc2)ncc1F)c1cccc2[nH]ncc12 [GTC000351A]
- IC50: 36.6 nM

Structure (SMILES): NCCCN(c1nc(Nc2ccc3c(c2)S(=O)(=O)CC3)ncc1F)c1cccc2[nH]ncc12 [GTC000252A]
- IC50: 4.94 nM

Structure (SMILES): CCN(c1nc(Nc2cccc(S(N)(=O)=O)c2)ncc1F)c1cccc2[nH]ncc12 [GTC000240B]
- IC50: 3.21 nM and 19 nM and 19.8 nM and 17.2 nM

Structure (SMILES): CC(=O)N1CCc2cc(Nc3nccc(Nc4cccc5[nH]ncc45)n3)ccc21 [GTC000114A]
- IC50: 206 nM

Structure (SMILES): O=S(=O)(c1cccc(Nc2nccc(Nc3cccc4[nH]ncc34)n2)c1)N1CCCCC1 [GTC000179A]
- IC50: 4160 nM

Structure (SMILES): CCN(c1nc(Nc2ccc(C(N)=O)cc2)ncc1F)c1cccc2[nH]ncc12 [GTC000260A]
- IC50: 5.48 nM

Structure (SMILES): COCCN(c1ccnc(Nc2ccc3nn[nH]c3c2)n1)c1cccc2[nH]ncc12 [GTC000322A]
- IC50: 20.5 nM

Structure (SMILES): CCN(c1nc(Nc2ccc(-c3cnco3)c(OC)c2)ncc1F)c1cccc2[nH]ncc12 [GTC000362A]
- IC50: 87.3 nM

Structure (SMILES): COCCCN(c1nc(Nc2cccc(S(C)(=O)=O)c2)ncc1F)c1cccc2[nH]ncc12 [GTC000347A]
- IC50: 33.3 nM

Structure (SMILES): OCCN(c1ccnc(Nc2ccc3nn[nH]c3c2)n1)c1cccc2[nH]ncc12 [GTC000232A]
- IC50: 2.05 nM

Structure (SMILES): COCCCN(c1nc(Nc2ccc3c(cnn3C)c2)ncc1F)c1cccc2[nH]ncc12 [GTC000294A]
- IC50: 10.2 nM

Structure (SMILES): NCCCN(c1ccnc(Nc2ccc3[nH]c(=O)[nH]c3c2)n1)c1cccc2[nH]ncc12 [GTC000293A]
- IC50: 9.29 nM

Structure (SMILES): O=C(O)c1ccc(Nc2nccc(Nc3cccc4[nH]ncc34)n2)cc1 [GTC000210A]
- IC50: 100 nM and 72.8 nM and 258 nM and 524 nM

Structure (SMILES): COCCN(c1ccnc(Nc2ccc3c(cnn3C)c2)n1)c1cccc2[nH]ncc12 [GTC000345A]
- IC50: 30.8 nM

Structure (SMILES): Cc1cc(=O)[nH]c2cc(Nc3nccc(Nc4cccc5[nH]ncc45)n3)ccc12 [GTC000109A]
- IC50: 53.6 nM

Structure (SMILES): c1cc(Nc2ccnc(Nc3ccc4c(c3)OCO4)n2)c2cn[nH]c2c1 [GTC000155A]
- IC50: 40.5 nM and 65.9 nM and 77.6 nM and 267 nM

Structure (SMILES): CNC(=O)c1ccc(Nc2nccc(Nc3cccc4[nH]ncc34)n2)cc1 [GTC000146A]
- IC50: 65.3 nM and 114 nM

Structure (SMILES): COCCCN(c1nc(Nc2ccc3[nH]c(=O)[nH]c3c2)ncc1F)c1cccc2[nH]ncc12 [GTC000263A]
- IC50: 4.86 nM

Structure (SMILES): O=S1(=O)NCc2ccc(Nc3ncc(F)c(N(CC4CCOC4)c4cccc5[nH]ncc45)n3)cc21 (centres undefined) [GTC000253A]
- IC50: 5.19 nM

Structure (SMILES): CC(=O)NCCCCN(c1ccnc(Nc2ccc3[nH]c(=O)[nH]c3c2)n1)c1cccc2[nH]ncc12 [GTC000231A]
- IC50: 1.42 nM

Structure (SMILES): NS(=O)(=O)c1cccc(Nc2ncc(F)c(N(CCCO)c3cccc4[nH]ncc34)n2)c1 [GTC000284A]
- IC50: 8.79 nM

Structure (SMILES): CCN(c1nc(Nc2ccc3cnn(CCCO)c3c2)ncc1F)c1cccc2[nH]ncc12 [GTC000250A]
- IC50: 2.81 nM and 3.59 nM and 14.9 nM and 5.77 nM

Structure (SMILES): O=C1Nc2cc(Nc3nccc(Nc4cccc5[nH]ncc45)n3)ccc2OC1(F)F [GTC000144A]
- IC50: 13.5 nM and 104 nM
